The values that follow come from US20120196335A1, “LIGF-TYPE TRANSFORMANTS FOR BIOCONVERSION OF LIGNIN-DERIVED COMPOUNDS” (priority 2010, published 2012).

The chains are these.
B1: LigF2: N. aromaticivorans beta-etherase polypeptide, glutathione S-transferase-like protein, GenBank ABD27301.1, SEQ ID NO:541 (protein)
chain: MALKYYHAEPLANSLKSMVPLKEKGLAYESIYVDLHKFEQHQPWFTAINPEGQVPVLDHDGTIITHTTVINEYLEDAFPDAQPADAPLRPRDPVGAARMRYWNKFIDEHVMNYVSMHGWHRMVGVIARNIASGDFEKLLESIPLPDQRKKWATARSGFSEADLANATAKIEYALDKVEKQLGETKWLAGDTYTLADINFYSHCGAMVERMFPEMEVARRAPRLCEWRDRVAARPAVAEALKSEDRTAPGLRVWSGEVR
B2: ligE1: N. aromaticivorans beta-etherase polypeptide, glutathione S-transferase-like protein, GenBank ABD26841.1, SEQ ID NO:101 (protein)
chain: MAANNTITFYDLALSTGATISPFVWATKYALKHKGFDLDVVPGGFTGILERTGGKTERLPAIVDDGEFVLDSWGIVEYLDAKYPDRPVLIPHESVAATLKALDNWFWNAAVGPWMFCFCQDYRDLSLPQDHEYVTHSREKMLGRKLEEVQAGREERLPKISAALEPLRAALAQHQWLGGSSPNYADYRIMGGILFTASVCKTPVLANDDPLRDWIERCLDLYGGLGRHPGLFPLFGLEQREGDPDLFNRAAGQGGIYKRNTGPESTRAETQRITEGMKK
B3: ABD27309.1: N. aromaticivorans putative beta-etherase polypeptide LigF-3, SEQ ID NO:545 (protein)
chain: MDEVSLYHWEPNANSGKPMLALMEKGVPFSSHYIDMLQFDQHKPEYLAINPQGTIPAMTHNGQVLTESTAIMEYVNDRFDGPDLMPADAQDRWRVRWWMKFMDQWLGPSFSMIGWSVFVGPMVRQRDPAELAAAIDRIPLPERRTAWRKAINGDFSESEMAESRRRVGLGIAKLEEELGKRPYVGSNQYSLADINIFNSTYSLPISQPDLAGKDRTPNIMRWLKRVYTREAVKKTWAMGKTDLAHRYGLIMAEIEG
B4: ABD26530.1: N. aromaticivorans putative beta-etherase polypeptide LigF-1, SEQ ID NO:539 (protein)
chain: MVIPLGEDNTIMLKLYSFGPAANSMKPLLTVFEKGLDVEKHRLDPAKFEHHTDWFKAINPRGQVPALVDGDKVVTESTVICEYLEDEYPTEVALRPADSFGKAQMRIWTKWVDEYFCWCVSTIGWHRYVGNMVKSLSDAEFEEKVKAIPVIEQQVKWRRAREGFPQDMLDEEMRKIAYSVRKLDDHLADHEWLVPGQYTLADICNFAIANGMQFGFAELVNKQDTPHLVRWIEQINERPAVKQMFAQVELEKLGPRE
B5: LigG: S. paucimobilis glutathione-eliminating glutathione S transferase, ligG gene product (protein)
chain: MSGASARSLGKGSAPPGPVPEGQIRVYSMRFCPFAQRTLMVLKAKGIRHEIININLKNKPEWFFEKNPFGLVPVLENTQGHLITESVITCEYLDEAYPEKKLFPDDPYEKACQKMTFELFSKVPSLVTSFIRAKRKEDHPGIKEELKKEFSKLEEAMANKRTAFFGGNSLSMIDYLIWPWFQRLEALELNECIDHTPKLKLWMATMQEDPVASSHFIDAKTYRDYLSLYLQDSPEACDYGL

System in the first series: not listed separately
Put plainly: in vitro biochemical assay for beta-etherase activity on fluorescent substrate MUAV (clarified E. coli cell extracts). To be noted: 0.1 mM MUAV substrate; E. coli cell extracts expressing the protein. The source says:
The model substrate synthesis 150 for use in the biochemical screening for selective activity can be outsourced through a contract research organization (CRO). The enzyme discovery effort can initially be focused on identifying potential beta-etherase candidate genes identified through bioinformatic methods. […] The fluorescent substrate α-O-(β-methylumbelliferyl)acetovanillone (MUAV), for example, can be used in in vitro assays to identify beta-etherase function (Acme Biosciences, Mt. View, Calif.). The formation of 4 methylumbelliferone (4MU) upon hydrolysis of the aryl ether bond can be monitored by fluorescence, for example, at λex=365 nm and λem=450 nm (or 460 nm).
The enzyme screening 155 is done to identify novel etherases 160. […] Expression of the beta-etherase genes can be done in 5 ml or 25 ml samples of the recombinant E. coli strains in LB medium using induction with IPTG. Following induction, and cell harvest, cell pellets can be lysed using the BPER (Invitrogen) cell lysis system. […] The formation of 4 methylumbelliferone (4MU) upon hydrolysis of the aryl ether bond in MUAV can be monitored by fluorescence at λex=365 nm and λem=460 nm, and can provide quantitative measurement of beta-etherase function. Cell extracts of E. coli transformed with the S. paucimobilis ligE and ligF genes can be the assay positive controls. Test or unknown samples can include, for example, E. coli strains expressing putative beta-etherase genes from N. aromaticovorans.
This example describes a method for gene expression in E. coli, as well as beta-etherase biochemical assays. Expression of known and putative beta-etherase genes was performed using 5 ml cultures of the recombinant E. coli strains described herein in Luria Broth medium by induction of gene expression using isopropylthiogalactoside (IPTG) to a final concentration of 0.1 mM. Following induction, and cell harvest, the cells were disrupted using either sonication or the BPER (Invitrogen) cell lysis system.
In vitro reactions were performed in a total volume of 200 ul and contained: 25 mM TrisHCl pH 7.5; 0.5 mM dithiothreitol; 1 mM glutathione; 0.05 mM or 0.1 mM MUAV; 10 ul of clarified cell extract used to initiate the reactions. Following incubation for 2.5 hours at room temperature, a 50 ul sample of the reactions was terminated using 150 uL of 300 mM glycine/NaOH buffer pH 9. The formation of 4 methylumbelliferone (4MU) upon hydrolysis of the aryl ether bond was monitored by the increase in fluorescence at λex=360 nm and λem=450 nm using a Spectramax UV/visible/fluorescent spectrophotometer.
The total protein concentrations of the cell lysates were determined using the BCA reagent system for protein quantification (Pierce).
Induction might be also performed using IPTG concentrations in the range of 0.01-1 mM. Cell disruption might be also performed using toluene permeabilization, French pressure techniques, or using multiple freeze/thaw cycles in conjunction with lysozyme. Assay conditions might be varied to include TrisHCl at 10-150 mM concentrations and in the pH range of 6.5-8.5; 0-2 mM dithiothreitol; 0.05-2 mM glutathione; 0.01-5 mM MUAV substrate; 22-42° C. reaction temperatures. The biochemical assay might be performed as a fixed time point assay with reaction times ranging from 5 minutes-12 hours, or performed continuously without quenching with glycine/NaOH buffer to extract enzyme kinetic parameters.
For the molecule B1, the “total activity (beta-etherase)” value came to 1206 rfu/ug.
The same measure, in the same setting: for B2 the value was 529 rfu/ug.

The same series, now with this note: MUAV substrate.
Regarding B3, the “beta-etherase activity on the MUAV substrate (in words)” value (“beta-etherase activity … (in words)” below) was “beta-etherase activity”.
Take B1: the “beta-etherase activity … (in words)” value is given as “beta-etherase activity” and the “fold more efficient than S. paucimobilis LigF protein” value was “approximately 2 fold”.
Regarding B4, the “beta-etherase activity … (in words)” value was “beta-etherase activity”.
B2: the “beta-etherase activity … (in words)” value was “beta-etherase activity” and the “fold more efficient than S. paucimobilis ligE beta-etherase enzyme” value is on record as “approximately 75 fold”.

The subject of a further series is Escherichia coli.
Assay: not given
To be noted: benzaldehyde derivatives, each alone; cited from earlier work.
For the molecule `O=Cc1ccc(O)c(O)c1O` [2,3,4-trihydroxybenzaldehyde], the “antibacterial activity against Escherichia coli” value is “antibacterial activity”.
Take `O=Cc1cccc(O)c1O` [2,3-dihydroxybenzaldehyde]: the “antibacterial activity against Escherichia coli” value is listed as “antibacterial activity”.
As for `O=Cc1c(O)cc(O)cc1O` [2,4,6-trihydroxybenzaldehyde], the “antibacterial activity against Escherichia coli” value was “antibacterial activity”.
With `O=Cc1ccc(O)cc1O` [2,4-dihydroxybenzaldehyde], the “antibacterial activity against Escherichia coli” value is “antibacterial activity”.
For the molecule `O=Cc1cc(O)ccc1O` [2,5-dihydroxybenzaldehyde], the “antibacterial activity against Escherichia coli” value is recorded as “antibacterial activity”.
`COc1cccc(C=O)c1O` [2-hydroxy-3-methoxybenzaldehyde]: the “antibacterial activity against Escherichia coli” value is listed as “antibacterial activity”.
As for `COc1ccc(O)c(C=O)c1` [2-hydroxy-5-methoxybenzaldehyde], the “antibacterial activity against Escherichia coli” value is recorded as “antibacterial activity”.
With `O=Cc1ccccc1O` [2-hydroxybenzaldehyde], the “antibacterial activity against Escherichia coli” value is given as “antibacterial activity”.
For `COc1cc(O)cc(OC)c1C=O` [4-hydroxy-2,6-dimethoxybenzaldehyde], the “antibacterial activity against Escherichia coli” value is given as “antibacterial activity”.

Staying with this series, now noted: each compound alone; known; cited from earlier work.
`O=Cc1ccc(O)cc1` [4-hydroxybenzaldehyde]: the “antimicrobial activity against Escherichia coli” value is “antimicrobial activity”.
For `O=Cc1ccc(CO)o1` [5-hydroxymethylfurfural], the “antimicrobial activity against Escherichia coli” value is “antimicrobial activity”.
Turning to `O=Cc1ccco1` [furfural], the “antimicrobial activity against Escherichia coli” value is on record as “antimicrobial activity”.
As to `COc1cc(C=O)cc(OC)c1O` [syringaldehyde], the “antimicrobial activity against Escherichia coli” value is “antimicrobial activity”.
Take `COc1cc(C=O)ccc1O` [vanillin]: the “antimicrobial activity against Escherichia coli” value is reported as “antimicrobial activity”.

In the next series the test system is Saccharomyces cerevisiae.
Assay: not given
As to conditions: each compound alone; cited from earlier work.
Consider `COc1ccc(C=O)cc1OC` [Veratraldehyde], for which the “antifungal activity against the yeast Saccharomyces cerevisiae” value (from here on “antifungal activity”) was “significant antifungal activities”.
Consider `O=C(O)C=Cc1ccccc1` [cinnamic acid], for which the “antifungal activity” value was “significant antifungal activities”.
Regarding `O=C(O)/C=C/c1cccc(O)c1` [m-coumaric acid], the “antifungal activity” value was “significant antifungal activities”.
On to `O=C(O)/C=C/c1ccccc1O` [o-coumaric acid], for which the “antifungal activity” value is on record as “significant antifungal activities”.
Turning to `O=C(O)/C=C/c1ccc(O)cc1` [p-coumaric acid], the “antifungal activity” value is reported as “significant antifungal activities”.
For the molecule `COc1cc(C(=O)O)ccc1O` [vanillic acid], the “antifungal activity” value was “significant antifungal activities”.
Turning to `COc1cc(CCC(C)=O)ccc1O` [vanillylacetone], the “antifungal activity” value is “significant antifungal activities”.

System in a further series: not given
Assay: not given
As to conditions: LigDFEG gene cluster, FIG. 2B; cited from earlier work.
“LigD: S. paucimobilis C alpha-dehydrogenase, ligD gene product”: the “enzyme activity shown by gene product” value is “Cα-dehydrogenase activity”.
Turning to B5, the “enzyme activity shown by gene product” value is recorded as “glutathione lyase activity”.
